Test [1] in a line: Binding affinity to Escherichia coli sliding clamp assessed as dissociation constant by ITC analysis. In general terms: Isothermal titration calorimetry measures the heat released or taken up as one component is titrated into another.
Test [2] deals with Escherichia coli. The experiment in a line: Binding affinity to Escherichia coli sliding clamp assessed as dissociation rate constant by ITC analysis.
Test [3] deals with Escherichia coli. As to the kind of experiment: Binding affinity to Escherichia coli sliding clamp assessed as gibbs free energy change by ITC analysis.
In test [4] the test system is Escherichia coli. As to the kind of experiment: Binding affinity to Escherichia coli sliding clamp assessed as association rate constant by ITC analysis.

Structures are written as SMILES. *1 amine or outer side, *2 acyl side, *3 side chain or, on linkers, in order; H or OH if unused. Where a SMILES comes first, the peptide text is derived from it. [ ]: non-standard residue; d: D form. The star is where a group is joined. N(3-imidazol-1-ylpropyl)Gly = O=C(O)CNCCCn1ccnc1; Gly(N-3-morpholinopropyl) = O=C(O)CNCCCN1CCOCC1; Phe(3,4-Cl2) = N[C@@H](Cc1ccc(Cl)c(Cl)c1)C(=O)O; Phe(3,4-F2) = N[C@@H](Cc1ccc(F)c(F)c1)C(=O)O; Acetyl(1-naphthyl) = O=C(Cc1cccc2ccccc12)*; Caffeoyl = O=C(/C=C/c1ccc(O)c(O)c1)*; Hydrocinnamoyl = O=C(CCc1ccccc1)*; NMeR = CN[C@@H](CCCNC(=N)N)C(=O)O; X2 = O=C(CN(Cc1ccccn1)[*:1])[*:2]; X3 = CN(C)/C(=N\CC(=O)*)N1CCOCC1; NFurfurylGly = O=C(O)CNCc1ccco1; NMeQ = CN[C@@H](CCC(N)=O)C(=O)O; Cha = N[C@@H](CC1CCCCC1)C(=O)O; NMeD = CN[C@@H](CC(=O)O)C(=O)O; X5 = CN(C)C(=NCC(=O)*)N(C)C; X1 = O=C(/C=C/c1ccccc1)*

Usually Kd stands for a measure of binding affinity in units of concentration. Consider `CC(=O)N[C@@H](CCC(N)=O)C(=O)N[C@@H](CC1CCCCC1)C(=O)N(C)[C@@H](CC(=O)O)C(=O)N[C@@H](CC(C)C)C(=O)N1CCC[C@H]1C(=O)N[C@@H](Cc1ccc(Cl)c(Cl)c1)C(=O)O` (Ac-Q[Cha][NMeD]LP[Phe(3,4-Cl2)]-OH), for which the Kd in test [1] amounted to 231 nM. In addition, the K was 7.9 10^-3/s in the test on Escherichia coli [2] and 3.8 10^4/M/s with Escherichia coli [4]. The deltaG with Escherichia coli [3] was -9.1 kcal/mol.
For `CC(=O)N[C@@H](CCC(N)=O)C(=O)N[C@@H](CC1CCCCC1)C(=O)N(C)[C@@H](CC(=O)O)C(=O)N[C@@H](CC(C)C)C(=O)N[C@@H](Cc1ccc(Cl)c(Cl)c1)C(=O)O` (Ac-Q[Cha][NMeD]L[Phe(3,4-Cl2)]-OH) the same measures were 41 nM, 1 10^-2/s, 2.7 10^5/M/s and -10.1 kcal/mol.
The like results for `CC(=O)N[C@@H](CCC(N)=O)C(=O)N[C@@H](CC1CCCCC1)C(=O)N(C)[C@@H](CC(=O)O)C(=O)N[C@@H](CC(C)C)C(=O)N[C@@H](Cc1ccc(F)c(F)c1)C(=O)O` (Ac-Q[Cha][NMeD]L[Phe(3,4-F2)]-OH) were, in that order, 148 nM, 8.4 10^-3/s, 5.6 10^4/M/s and -9.3 kcal/mol.
For `CC(=O)N[C@@H](CCCNC(=N)N)C(=O)N[C@@H](CCC(N)=O)C(=O)N[C@@H](CC1CCCCC1)C(=O)N[C@@H](CC(=O)O)C(=O)N[C@@H](CC(C)C)C(=O)N[C@@H](Cc1ccccc1)C(=O)O` (Ac-RQ[Cha]DLF-OH) the same measures were 498 nM, 1.9 10^-2/s, 3.7 10^4/M/s and -8.6 kcal/mol.
For `CC(=O)N[C@@H](CCCNC(=N)N)C(=O)N[C@@H](CCC(N)=O)C(=O)N[C@@H](CC1CCCCC1)C(=O)N(C)[C@@H](CC(=O)O)C(=O)N[C@@H](CC(C)C)C(=O)N[C@@H](Cc1ccc(Cl)c(Cl)c1)C(=O)O` (Ac-RQ[Cha][NMeD]L[Phe(3,4-Cl2)]-OH), the Kd in test [1] was found to be 278 nM. Moreover, the figures for the K in the test with Escherichia coli [2] and in the test on Escherichia coli [4] were 2.1 10^-2/s and 7.6 10^4/M/s, respectively. For the same compound, the deltaG in the test with Escherichia coli [3] is -8.9 kcal/mol.
The like results for `CC(=O)N(C)[C@@H](CCC(N)=O)C(=O)N[C@@H](CC1CCCCC1)C(=O)N[C@@H](CC(=O)O)C(=O)N[C@@H](CC(C)C)C(=O)N[C@@H](Cc1ccccc1)C(=O)O` (Ac-[NMeQ][Cha]DLF-OH) were, in that order, greater than 1000 nM, 4.6 10^-2/s, 2.1 10^4/M/s and -7.7 kcal/mol.
In the case of `CC(=O)N(C)[C@@H](CCCNC(=N)N)C(=O)N[C@@H](CCC(N)=O)C(=O)N[C@@H](CC1CCCCC1)C(=O)N[C@@H](CC(=O)O)C(=O)N[C@@H](CC(C)C)C(=O)N[C@@H](Cc1ccccc1)C(=O)O` (Ac-[NMeR]Q[Cha]DLF-OH), the Kd in test [1] came to 2130 nM. The results for the K with Escherichia coli [2] and in the test on Escherichia coli [4] were 2.9 10^-2/s and 2.1 10^4/M/s, respectively. Further, the deltaG in the test with Escherichia coli [3] was -7.7 kcal/mol.
The like results for `CC(=O)N(C)[C@@H](CCCNC(=N)N)C(=O)N[C@@H](CCC(N)=O)C(=O)N[C@@H](CC1CCCCC1)C(=O)N(C)[C@@H](CC(=O)O)C(=O)N[C@@H](CC(C)C)C(=O)N[C@@H](Cc1ccc(Cl)c(Cl)c1)C(=O)O` (Ac-[NMeR]Q[Cha][NMeD]L[Phe(3,4-Cl2)]-OH) were, in that order, 92 nM, 9.4 10^-3/s, 1.1 10^5/M/s and -9.6 kcal/mol.
For `CC(C)C[C@H](NC(=O)[C@H](CC(=O)O)NC(=O)[C@H](CC1CCCCC1)NC(=O)[C@H](CCC(N)=O)NC(=O)/C=C/c1ccc(O)c(O)c1)C(=O)N[C@@H](Cc1ccccc1)C(=O)O` (Caffeoyl-Q[Cha]DLF-OH) the same measures were 99 nM, 4.7 10^-3/s, 4.6 10^4/M/s and -9.5 kcal/mol.
`CC(C)C[C@H](NC(=O)[C@H](CC(=O)O)NC(=O)[C@H](CC1CCCCC1)NC(=O)[C@H](CCC(N)=O)NC(=O)CNCCCN1CCOCC1)C(=O)N[C@@H](Cc1ccccc1)C(=O)O` (H-[Gly(N-3-morpholinopropyl)]Q[Cha]DLF-OH): in test [1], the Kd came to 796 nM. Also, the K is 1.4 10^-2/s in the test on Escherichia coli [2] and 1.8 10^4/M/s in the test with Escherichia coli [4]. The deltaG with Escherichia coli [3] was -8.3 kcal/mol.
The like results for `CC(C)C[C@H](NC(=O)[C@H](CC(=O)O)NC(=O)[C@H](CC1CCCCC1)NC(=O)[C@H](CCC(N)=O)NC(=O)CNCCCn1ccnc1)C(=O)N[C@@H](Cc1ccccc1)C(=O)O` (H-[N(3-imidazol-1-ylpropyl)Gly]Q[Cha]DLF-OH) were, in that order, 312 nM, 1.1 10^-2/s, 4.2 10^4/M/s and -8.9 kcal/mol.
The like results for `CC(C)C[C@H](NC(=O)[C@H](CC(=O)O)NC(=O)[C@H](CC1CCCCC1)NC(=O)[C@H](CCC(N)=O)NC(=O)CNCc1ccco1)C(=O)N[C@@H](Cc1ccccc1)C(=O)O` (H-[NFurfurylGly]Q[Cha]DLF-OH) were, in that order, 171 nM, 8.6 10^-3/s, 4.8 10^4/M/s and -9.2 kcal/mol.
In the case of `CC(C)C[C@H](NC(=O)[C@H](CC(=O)O)NC(=O)[C@H](CC1CCCCC1)NC(=O)[C@H](CCC(N)=O)NC(=O)CNCc1ccccn1)C(=O)N[C@@H](Cc1ccccc1)C(=O)O` (H-[X2]Q[Cha]DLF-OH), in test [1], the Kd was found to be 172 nM. The K is 5.7 10^-3/s with Escherichia coli [2] and 3.4 10^4/M/s in the test with Escherichia coli [4]. Further, in the test on Escherichia coli [3], the deltaG was -9.2 kcal/mol.
For the compound `CC(C)C[C@H](NC(=O)[C@H](CC(=O)O)NC(=O)[C@H](CC1CCCCC1)NC(=O)[C@H](CCC(N)=O)NC(=O)CCc1ccccc1)C(=O)N[C@@H](Cc1ccccc1)C(=O)O` (Hydrocinnamoyl-Q[Cha]DLF-OH), the Kd in test [1] is 123 nM. Also, the K with Escherichia coli [2] is 6.7 10^-3/s; in the test on Escherichia coli [4], 5.5 10^4/M/s. In addition, the deltaG with Escherichia coli [3] is -9.1 kcal/mol.
For `CC(C)C[C@H](NC(=O)[C@@H]1CCCN1C(=O)[C@H](CC(C)C)NC(=O)[C@H](CC(=O)O)NC(=O)[C@H](CC1CCCCC1)NC(=O)[C@H](CCC(N)=O)NC(=O)/C=C/c1ccccc1)C(=O)O` (X1-Q[Cha]DLPL-OH) the same measures were 132 nM, 8 10^-3/s, 6 10^4/M/s and -9.4 kcal/mol.
As to `CC(C)C[C@H](NC(=O)[C@H](CC(=O)O)NC(=O)[C@H](CC1CCCCC1)NC(=O)[C@H](CCC(N)=O)NC(=O)C/N=C(\N(C)C)N1CCOCC1)C(=O)N[C@@H](Cc1ccccc1)C(=O)O` (X3-Q[Cha]DLF-OH), the Kd in test [1] worked out at 276 nM. For the same compound, the K in the test on Escherichia coli [2] is 1 10^-2/s; in the test with Escherichia coli [4], 3.4 10^4/M/s. The deltaG with Escherichia coli [3] was -9 kcal/mol.
The like results for `CC(C)C[C@H](NC(=O)[C@H](CC(=O)O)NC(=O)[C@H](CC1CCCCC1)NC(=O)[C@H](CCC(N)=O)NC(=O)CN=C(N(C)C)N(C)C)C(=O)N[C@@H](Cc1ccccc1)C(=O)O` (X5-Q[Cha]DLF-OH) were, in that order, 353 nM, 1.1 10^-2/s, 3.4 10^4/M/s and -8.7 kcal/mol.
For `CC(C)C[C@H](NC(=O)[C@H](CC(=O)O)NC(=O)[C@H](CC1CCCCC1)NC(=O)[C@H](CCC(N)=O)NC(=O)Cc1cccc2ccccc12)C(=O)N[C@@H](Cc1ccccc1)C(=O)O` ({Acetyl(1-naphthyl)}-Q[Cha]DLF-OH) the same measures were 89 nM, 5.7 10^-3/s, 6.5 10^4/M/s and -9.6 kcal/mol.

Source of the values: ChEMBL document CHEMBL5053545, “Iterative Structure-Based Optimization of Short Peptides Targeting the Bacterial Sliding Clamp” (J Med Chem, 2021).
